Assay results published in patent US9975878B2, “Substituted triazine BMI-1 inhibitors” (PTC Therapeutics, Inc., priority 2013, dated 2018).

Tested on: Bmi-1 protein
Assay: Sandwich ELISA Assay: Bmi-1 protein level in HT-1080 cells treated with test compounds
Type: cell-based
Description: Cell Seeding and Compound Treatment (Day 1):
HT-1080 cells were seeded at 8000 cells/well (50 μL) in 96-well tissue culture plates. After the cells became adherent (3-4 hours), 2× diluted stocks of test compounds in 50 μL DMEM containing 1% DMSO (final DMSO concentration was 0.5%) were added and the plates were incubated at 37° C. under 5% CO2 for 40-48 hours.
ELISA Plate First Antibody Preparation (Day 2):
The First Antibody (Millipore Mouse, monoclonal to mouse Bmi-1, clone F6, catalog #05-637) diluted to 2 μg/mL in PBS was added (100 μL) to each well of a Nunc MaxiSorp 96-well ELISA plate. The plate was covered with a plate seal and allowed to stand overnight.
Cell Lysate Preparation (Day 3):
Fresh Lysis buffer (1×) was prepared on the day of the assay as follows: 1 mM EDTA, 150 mM NaCl, 0.5% Triton-X 100, 10 mM NaF, 20 mM B-Glycerophosphate, 1 mM DTT (in PBS, pH 7.2-7.4) and HALT protease inhibitor cocktail (1×) (Pierce #78410).
Lysis Buffer (1×, 40 μL) was added to each well and the plate was shaken for 5-10 minutes on an orbital shaker to allow cell lysis, then diluent (1% BSA in PBS in 0.5% NP40) (100 μL) was added to each well.
A standard curve was prepared at the following Bmi-1 concentrations: 8000, 4000, 2000, 1000, 500, 250, 125 and 0 pg/mL. The Bmi-1 Recombinant Protein Standard (Novus Biologicals PCGF4 Recombinant Protein (P01), catalog # H00000648-P01) used to prepare the standard curve was stored at −80° C. On first thaw, the Recombinant Protein Standard was diluted to 10 μg/μL in Blocking Buffer (1% BSA in PBS; BSA: Fisher Scientific Catalog #1600-100). Aliquots were taken and refrozen at −80° C. The aliquots may be kept at 4° C. and reused after first thaw, but only within 1-2 weeks. The Recombinant Protein Standard contains a GST-fusion tag that appears at approximately 70 Kda on Western Blot.
The prepared ELISA plate was washed 3× with Wash Buffer (0.05% Tween-20 in PBS). The final wash was removed from the plate and the plate was blotted dry. Blocking Buffer (300 μL) (1% BSA in PBS) was added to each well. The plate was covered with a plate seal and incubated at room temperature for 1 hour. The blocked plate was washed 3× with Wash Buffer, then the final wash was removed and the plate was blotted dry. The previously prepared samples and standards were added (100 μL/well) and the plate was covered with a plate seal and incubated at 4° C. overnight.
The prepared ELISA plate was removed from incubation and allowed to stand at room temperature for 30 minutes, then washed and blotted dry. The Second Antibody (Cell Signaling Rabbit anti-Bmi-1, Cat# 2830) diluted to 1:600 in Blocking Buffer was added (100 μL) to each well, except as needed for background control wells. The plate was covered with a plate seal and incubated for 1.5 hrs at room temperature.
The ELISA plate was washed and blotted dry as previously described. The Third Antibody (Cell Signaling HRP conjugated anti-rabbit IgG (CellSignaling, Cat#:7074) diluted to 1:300 in Blocking Buffer was added (100 μL) to each well, except as needed for background control wells. The plate was incubated for 1 hr at room temperature.
The plate was washed and blotted dry, then a previously prepared TMB substrate (TMB substrate kit, Pierce catalog #34021) (prepared by mixing kit reagents 1:1) (100 μL) was added per well. The plate was incubated for 20-30 minutes at room temperature in the dark, then Stop Solution (2 M sulfuric acid in water) (50 μL) was added per well. The plates were read at OD450 (experimental) and OD570 (reference).

EC50 [nM]	SMILES
1 to 10	COc1ccc(Nc2nc(N)nc(-c3c(C(F)(F)F)nc4ccccn34)n2)cc1F [Cpd 1, N-(3-fluoro-4-methoxyphenyl)-6-[2-(trifluoromethyl)imidazo[1,2-a]pyridin-3-yl]-1,3,5-triazine-2,4-diamine]
10 to 100	Cc1nc2ccccc2n1-c1nc(N)nc(Nc2ccc(C(F)(F)F)cc2)n1 [Cpd 2, 6-(2-methyl-1H-benzimidazol-1-yl)-N-[4-(trifluoromethyl)phenyl]-1,3,5-triazine-2,4-diamine]
100 to 3000	Cc1nc2ccccc2n1-c1nc(N)nc(Nc2ccc(OC(F)(F)F)cc2)n1 [Cpd 3, 6-(2-methyl-1H-benzimidazol-1-yl)-N-[4-(trifluoromethoxy)phenyl]-1,3,5-triazine-2,4-diamine]
10 to 100	Cc1nc2ccccc2n1-c1nc(N)nc(Nc2ccc(OC(F)F)cc2)n1 [Cpd 4, N-[4-(difluoromethoxy)phenyl]-6-(2-methyl-1H-benzimidazol-1-yl)-1,3,5-triazine-2,4-diamine]
100 to 3000	Cc1nc2ccccc2n1-c1nc(N)nc(Nc2ccc(C(F)(F)F)c(F)c2)n1 [Cpd 5, N-[3-fluoro-4-(trifluoromethyl)phenyl]-6-(2-methyl-1H-benzimidazol-1-yl)-1,3,5-triazine-2,4-diamine]
10 to 100	Cc1nc2ccccc2n1-c1nc(N)nc(Nc2ccc(OC(F)F)c(F)c2)n1 [Cpd 6, N-[4-(difluoromethoxy)-3-fluorophenyl]-6-(2-methyl-1H-benzimidazol-1-yl)-1,3,5-triazine-2,4-diamine]
1 to 10	Cc1nc2ccccc2n1-c1nc(N)nc(Nc2ccc3[nH]ccc3c2)n1 [Cpd 7, N-(1H-indol-5-yl)-6-(2-methyl-1H-benzimidazol-1-yl)-1,3,5-triazine-2,4-diamine]
10 to 100	Cc1nc2ccccc2n1-c1nc(N)nc(Nc2ccc3occc3c2)n1 [Cpd 8, N-(1-benzofuran-5-yl)-6-(2-methyl-1H-benzimidazol-1-yl)-1,3,5-triazine-2,4-diamine]
100 to 3000	Cc1nc2cc(F)c(F)cc2n1-c1nc(N)nc(Nc2ccc(C(F)(F)F)cc2)n1 [Cpd 9, 6-(5,6-difluoro-2-methyl-1H-benzimidazol-1-yl)-N-[4-(trifluoromethyl)phenyl]-1,3,5-triazine-2,4-diamine]
100 to 3000	Cc1nc2cc(F)c(F)cc2n1-c1nc(N)nc(Nc2ccc(OC(F)F)c(F)c2)n1 [Cpd 10, N-[4-(difluoromethoxy)-3-fluorophenyl]-6-(5,6-difluoro-2-methyl-1H-benzimidazol-1-yl)-1,3,5-triazine-2,4-diamine]
10 to 100	Cc1nc2cc(F)c(F)cc2n1-c1nc(N)nc(Nc2ccc(OC(F)F)cc2)n1 [Cpd 11, N-[4-(difluoromethoxy)phenyl]-6-(5,6-difluoro-2-methyl-1H-benzimidazol-1-yl)-1,3,5-triazine-2,4-diamine]
100 to 3000	Cc1nc2cc(Cl)c(Cl)cc2n1-c1nc(N)nc(Nc2ccc(C(F)(F)F)cc2)n1 [Cpd 12, 6-(5,6-dichloro-2-methyl-1H-benzimidazol-1-yl)-N-[4-(trifluoromethyl)phenyl]-1,3,5-triazine-2,4-diamine]
100 to 3000	Cc1nc2ccccc2n1-c1nc(NO)nc(Nc2ccc(C(F)(F)F)cc2)n1 [Cpd 13, N-hydroxy-6-(2-methyl-1H-benzimidazol-1-yl)-N′-[4-(trifluoromethyl)phenyl]-1,3,5-triazine-2,4-diamine]
1 to 10	Cc1nc2ccccc2n1-c1nc(N)nc(Nc2ccc3ncccc3c2)n1 [Cpd 14, 6-(2-methyl-1H-benzimidazol-1-yl)-N-(quinolin-6-yl)-1,3,5-triazine-2,4-diamine]
100 to 3000	Cc1nc2ccccc2n1-c1nc(N)nc(Nc2ccc3ocnc3c2)n1 [Cpd 15, N-(1,3-benzoxazol-5-yl)-6-(2-methyl-1H-benzimidazol-1-yl)-1,3,5-triazine-2,4-diamine]
10 to 100	Cc1nc2ccccc2n1-c1nc(NO)nc(Nc2ccc3ncccc3c2)n1 [Cpd 16, N-hydroxy-6-(2-methyl-1H-benzimidazol-1-yl)-N′-(quinolin-6-yl)-1,3,5-triazine-2,4-diamine]
100 to 3000	Cc1nc2ncccc2n1-c1nc(N)nc(Nc2ccc(C(F)(F)F)cc2)n1 [Cpd 17, 6-(2-methyl-1H-imidazo[4,5-b]pyridin-1-yl)-N-[4-(trifluoromethyl)phenyl]-1,3,5-triazine-2,4-diamine]
1 to 10	Cc1nc2ccccc2n1-c1nc(N)nc(Nc2ccc3c(c2)OCO3)n1 [Cpd 18, N-(1,3-benzodioxol-5-yl)-6-(2-methyl-1H-benzimidazol-1-yl)-1,3,5-triazine-2,4-diamine]
100 to 3000	Cc1nc2ccccc2n1-c1nc(NCCO)nc(Nc2ccc3c(c2)OCO3)n1 [Cpd 19, 2-{[4-(1,3-benzodioxol-5-ylamino)-6-(2-methyl-1H-benzimidazol-1-yl)-1,3,5-triazin-2-yl]amino}ethanol]
1 to 10	Cc1nc2ccccc2n1-c1nc(N)nc(Nc2cnc3ccccc3c2)n1 [Cpd 20, 6-(2-methyl-1H-benzimidazol-1-yl)-N-(quinolin-3-yl)-1,3,5-triazine-2,4-diamine]
10 to 100	Cc1nc2ccccc2n1-c1nc(NCCO)nc(Nc2cnc3ccccc3c2)n1 [Cpd 21, 2-{[4-(2-methyl-1H-benzimidazol-1-yl)-6-(quinolin-3-ylamino)-1,3,5-triazin-2-yl]amino}ethanol]
10 to 100	Cc1nc2ccccc2n1-c1nc(N)nc(Nc2cc3ccccc3cn2)n1 [Cpd 22, N-(isoquinolin-3-yl)-6-(2-methyl-1H-benzimidazol-1-yl)-1,3,5-triazine-2,4-diamine]
100 to 3000	Cc1nc2ncccc2n1-c1nc(N)nc(Nc2ccc(OC(F)F)cc2)n1 [Cpd 23, N-[4-(difluoromethoxy)phenyl]-6-(2-methyl-1H-imidazo[4,5-b]pyridin-1-yl)-1,3,5-triazine-2,4-diamine]
100 to 3000	Cc1nc2ncc(F)cc2n1-c1nc(N)nc(Nc2ccc(C(F)(F)F)cc2)n1 [Cpd 24, 6-(6-fluoro-2-methyl-1H-imidazo[4,5-b]pyridin-1-yl)-N-[4-(trifluoromethyl)phenyl]-1,3,5-triazine-2,4-diamine]
10 to 100	Nc1nc(Nc2ccc(C(F)(F)F)cc2)nc(-c2c(C(F)(F)F)nc3ccc(F)cn23)n1 [Cpd 25, 6-[6-fluoro-2-(trifluoromethyl)imidazo[1,2-a]pyridin-3-yl]-N-[4-(trifluoromethyl)phenyl]-1,3,5-triazine-2,4-diamine]
10 to 100	Cc1nc2ccc(F)cc2n1-c1nc(N)nc(Nc2ccc(C(F)(F)F)cc2)n1 [Cpd 26, 6-(6-fluoro-2-methyl-1H-benzimidazol-1-yl)-N-[4-(trifluoromethyl)phenyl]-1,3,5-triazine-2,4-diamine]
100 to 3000	Cc1nc2cc(F)ccc2n1-c1nc(N)nc(Nc2ccc(C(F)(F)F)cc2)n1 [Cpd 27, 6-(5-fluoro-2-methyl-1H-benzimidazol-1-yl)-N-[4-(trifluoromethyl)phenyl]-1,3,5-triazine-2,4-diamine]
10 to 100	Cc1nc2ccc(F)cc2n1-c1nc(N)nc(Nc2ccc(OC(F)F)cc2)n1 [Cpd 28, N-[4-(difluoromethoxy)phenyl]-6-(6-fluoro-2-methyl-1H-benzimidazol-1-yl)-1,3,5-triazine-2,4-diamine]
10 to 100	Cc1nc2ccc(F)cc2n1-c1nc(N)nc(Nc2ccc(OC(F)F)c(F)c2)n1 [Cpd 29, N-[4-(difluoromethoxy)-3-fluorophenyl]-6-(6-fluoro-2-methyl-1H-benzimidazol-1-yl)-1,3,5-triazine-2,4-diamine]
10 to 100	CCc1nc2ccccc2n1-c1nc(N)nc(Nc2ccc(C(F)(F)F)cc2)n1 [Cpd 30, 6-(2-ethyl-1H-benzimidazol-1-yl)-N-[4-(trifluoromethyl)phenyl]-1,3,5-triazine-2,4-diamine]
